Measured values: patent publication US10087427B2, “Glycosyltransferase gene and use thereof” (SUNTORY HOLDINGS LIMITED, priority 2014, dated 2018)

Test system: NmGT22 protein
Test: Enzyme activity of purified His-tag NmGT22 protein on flavonoid substrates (HPLC)
Format: biochemical, Nemophila menziesii
Conditions: NmGT22 protein solution, UDP-glucose; for reaction rate (percentage of transformed substrate): 1 μl of 2 mM substrate in 100 μl, 20 minutes at 30° C.
Method: E. coli strain BL2 introduced with pET SUMO-NmGT22 described in Example 5 was cultured using the Overnight Express Auto-induction System 1 (Novagen Inc.) in accordance with the manufacturer's recommended protocol. The transformed E. coli were cultured in 8 ml of prepared culture broth at 37° C. until the OD600 value reached 0.5 (about 4 hours). This E. coli culture broth was added to 200 ml of a culture broth as pre-culture broth followed by final culturing overnight at 25° C.
After having been cultured overnight, the E. coli culture broth was centrifuged (1,000×g, 4° C., 10 minutes), the harvested bacterial cells were suspended in 20 ml of extract (composition: buffer solution (300 mM KCl, 50 mM KH2PO4, 5 mM imidazole) (pH 8.0), 10 μM amidinophenylmethanesulfonyl fluoride hydrochloride (APMSF)), and the E. coli were crushed by ultrasonic treatment followed by centrifuging (1,400×g, 4° C., 20 minutes) and recovering the supernatant. The supernatant was passed through a 0.45 μm filter and subjected to His-Tag purification using Profinia (Bio-Rad Corp.) in accordance with the manufacturer's recommended protocol. The resulting purified protein solution was centrifuged (7,500×g, 4° C., 15 minutes) using a centrifugal filter unit (Ultracel-10K, Amicon Ultra), and the concentrated protein solution was used as “NmGT-22 Protein Solution”. The Avanti HP-26XP centrifuge (rotor: JA-2, Beckman Coulter Inc.) was used for centrifugation.
A reaction solution prepared by mixing 10 μl of protein solution, 2 it of 50 mM UDP-glucose, 10 μl of 1 M Tris-HCl (pH 7.5) and 1 μl of 2 mM apigenin 4′-glucoside (dissolved in 50% aqueous acetonitrile solution containing 0.1% TFA) on ice and bringing to reaction volume of 100 μl with water was held for 20 minutes at 30° C. Subsequently, 100 μl of stop buffer (90% aqueous acetonitrile solution containing 0.1% TFA) were added to stop the reaction followed by analyzing the reaction solution by high-performance liquid chromatography (Prominence, Shimadzu Corp.). Flavone was detected at 330 nm using the Shimadzu PDA SPD-M10AVP for the detector. The Shim-Pack ODS column (150 mm×4.6 mm, Shimadzu Corp.) was used for the column. A liquid A (0.1% aqueous TFA solution) and a liquid B (90% aqueous methanol solution containing 0.1% TFA) were used for elution. Elution was carried out for 10 minutes at a linear concentration gradient from an 8:2 mixture of the two solutions to a 3:7 mixture of the two solutions followed by eluting for 6 minutes using a 3:7 mixture of the two solutions. The flow rate was 0.6 ml/min.

SMILES	reaction rate (percentage of transformed substrate) [%]	product synthesized by enzyme reaction (2 mM substrate, same reaction conditions)
O=c1cc(-c2ccc(O)cc2)oc2cc(O[C@@H]3O[C@H](CO)[C@@H](O)[C@H](O)[C@H]3O)cc(O)c12 [apigenin 7-glucoside]	2.69	–
O=c1cc(-c2ccc(O[C@@H]3O[C@H](CO)[C@@H](O)[C@H](O)[C@H]3O)c(O)c2)oc2cc(O)cc(O)c12 [luteolin 4′-glucoside]	–	Luteolin 4′,7-diglucoside was synthesized
O=c1cc(-c2ccc(O)c(O)c2)oc2cc(O[C@@H]3O[C@H](CO)[C@@H](O)[C@H](O)[C@H]3O)cc(O)c12 [luteolin 7-glucoside]	16.10	–

More lines, main results first:

reaction rate (percentage of transformed substrate) [%]	SMILES	product synthesized by enzyme reaction (2 mM substrate, same reaction conditions)
100	O=c1cc(-c2ccc(O[C@@H]3O[C@H](CO)[C@@H](O)[C@H](O)[C@H]3O)cc2)oc2cc(O)cc(O)c12 [apigenin 4′-glucoside]	–
77.16	O=c1cc(-c2ccc(O)cc2)oc2cc(O)cc(O)c12 [apigenin, 4′,5,7-trihydroxyflavone]	–
99.07	O=c1cc(-c2ccc(O)c(O)c2)oc2cc(O)cc(O)c12 [luteolin, 3′,4′,5,7-tetrahydroxyflavone]	–
